# Test results: patent US8691757B2 (Bristol-Myers Squibb Company, priority 2011, dated 2014)
# What was measured:
# [1] = test system: HCV genotype 1a (H77 strain) replicon in HUH-7 cells; assay: HCV replicon luciferase reporter assay, genotype 1a; format: cell-based; conditions: Hepatitis C virus, 72 h, HCV genotype 1a replicon, 3 days incubation, Renilla luciferase
# Source text: (§1) An HCV replicon whole cell system was established as described by Lohmann V, Korner F, Koch J, Herian U, Theilmann L, Bartenschlager R., Science 285(5424):110-3 (1999) and modified to introduce a luciferase reporter, as first described by Krieger et al (Krieger N, Lohmann V, and Bartenschlager R, J. Virol. 75(10):4614-4624 (2001)). CDNA encoding a humanized form of the Renilla luciferase gene and a linker sequence fused directly to the 3′-end of the luciferase gene were introduced into the replicon construct using an Asc1 restriction site located in core, directly upstream of the neomycin marker gene. The adaptive mutation at position 1179 (serine to isoleucine) was also introduced (Blight K J, Kolykhalov, A A, Rice, C M, Science 290(5498):1972-1974). A stable cell line constitutively expressing this HCV replicon construct was generated by first linearizing plasmid DNAs with ScaI. RNA transcripts were synthesized in vitro using the T7 MegaScript transcription kit (Ambion, Austin, Tex.) according to manufacturer's directions. In vitro transcripts of the cDNA were transfected into the human hepatoma cell line, HUH-7. […] Resulting cell lines were characterized for positive and negative strand RNA production and protein production over time.
# A stable HCV replicon luciferase reporter cell line representing the genotype 1a H77 strain (Yanagi M, Purcell R H, Emerson S U, et al. Transcripts from a single full-length cDNA clone of hepatitis C virus are infectious when directly transfected into the liver of a chimpanzee. Proc Natl Acad Sci USA 1997; 94(16):8738-8743) was generated as described previously for the genotype 1b (Con1) replicon luciferase cell line. The replicon construct was modified by introducing mutations were introduced into the genes encoding the NS3 helicase domain (proline replaced by leucine at position 1496) and NS5A (serine to isoleucine at position 2204) to improve replication in cell culture.
# (§2) HCV replicon luciferase assays were developed to monitor the inhibitory effects of compounds described in the disclosure on HCV genotypes 1a and 1b viral replication. HUH-7 cells, constitutively expressing the HCV replicon, were grown in Dulbecco's Modified Eagle Media (DMEM) (Gibco-BRL) containing 10% Fetal calf serum (FCS) (Sigma) and 1 mg/mL G418 (Gibco-BRL). Compounds were serially diluted 3 folds in DMSO for a twenty-point titration and subsequently transferred to sterile 384-well tissue-culture treated plates (Corning cat #3571). The plates were then seeded with 50 μL of cells at a density of 3.0×10^3 cells/well in DMEM containing 4% FCS (final DMSO concentration at 0.5%). After 3 days incubation at 37° C., cells were analyzed for Renilla Luciferase activity using the EnduRen as substrate (Promega cat #E6485). The EnduRen substrate was diluted in DMEM and then added to the plates to a final concentration of 7.5 μM. The plates were incubated for 2 hrs at 37° C. and then read immediately for 30 seconds with Viewlux Imager (PerkinElmer) using a luminescence program. To assess cytotoxicity of compounds, CC50 values were generated by multiplexing the EnduRen-containing plates with Cell Titer-Blue (Promega, cat #G8082). Cell-Titer Blue (3 μL) was added to each well and incubated for 8 hrs at 37° C. The fluorescence signal from each well was read, with an excitation wavelength at 525/10 nm and an emission wavelength of 598/10 nm, using the Viewlux Imager.
# (§3) The EC50 values for compounds were calculated by using a four-parameter logistic equation: y=A+((B−A)/(1+((C/x)^D))), where A and B denotes minimal and maximal % inhibition, respectively, C is the EC50, D is the hill slope and x represents compound concentration.
# [2] = test system: HCV genotype 1b (Con1) replicon in HUH-7 cells; assay: HCV replicon luciferase reporter assay, genotype 1b; format: cell-based; conditions: Hepatitis C virus, 72 h, HCV genotype 1b replicon, 3 days incubation, Renilla luciferase
# Source text: as §1, with “time. […]” for “time.”
# as §2, §3
SMILES,EC50 ([1]; range classes),EC50 ([2]; range classes),EC50 ([1]; numeric values),EC50 ([2]; numeric values)
"COc1cc2c(OC)cnc(O[C@@H]3C[C@H]4C(=O)N[C@]5(C(=O)NS(=O)(=O)C6CC6)C[C@H]5/C=C\[C@H](C)CCC[C@@H](C)[C@H](NC(=O)OC(C)(C)C(F)(F)F)C(=O)N4C3)c2cc1F [Compound 33, 1,1,1-trifluoro-2-methylpropan-2-yl (2R,6S,7R,11R,13aS,14aR,16aS,Z)-14a-(cyclopropylsulfonylcarbamoyl)-2-(7-fluoro-4,6-dimethoxyisoquinolin-1-yloxy)-7,11-dimethyl-5,16-dioxo-1,2,3,5,6,7,8,9,10,11,13a,14,14a,15,16,16a-hexadecahydrocyclopropa[e]pyrrolo[1,2-a][1,4]diazacyclopentadecin-6-ylcarbamate]",2.01 to 5 nM,1.01 to 2 nM,–,–
"COc1ccc2nc(O[C@@H]3C[C@H]4C(=O)N[C@]5(C(=O)NS(=O)(=O)C6CC6)C[C@H]5/C=C\[C@@H](C)CCC[C@@H](C)[C@H](NC(=O)OC(C)(C)C)C(=O)N4C3)cnc2c1 [Compound 27, tert-butyl (2R,6S,7R,11S,13aS,14aR,16aS,Z)-14a-(cyclopropylsulfonylcarbamoyl)-2-(6-methoxyquinoxalin-2-yloxy)-7,11-dimethyl-5,16-dioxo-1,2,3,5,6,7,8,9,10,11,13a,14,14a,15,16,16a-hexadecahydrocyclopropa[e]pyrrolo[1,2-a][1,4]diazacyclopentadecin-6-ylcarbamate]",5.01 to 68 nM,5.01 to 68 nM,–,–
"COc1cc2c(OC)cnc(O[C@@H]3C[C@H]4C(=O)N[C@]5(C(=O)NS(=O)(=O)C6(C)CC6)C[C@H]5/C=C\[C@H](C)CCC[C@@H](C)[C@H](NC(=O)OC(C)(C)C(F)(F)F)C(=O)N4C3)c2cc1F [Compound 15, 1,1,1-trifluoro-2-methylpropan-2-yl (2R,6S,7R,11R,13aS,14aR,16aS,Z)-2-(7-fluoro-4,6-dimethoxyisoquinolin-1-yloxy)-7,11-dimethyl-14a-(1-methylcyclopropylsulfonylcarbamoyl)-5,16-dioxo-1,2,3,5,6,7,8,9,10,11,13a,14,14a,15,16,16a-hexadecahydrocyclopropa[e]pyrrolo[1,2-a][1,4]diazacyclopentadecin-6-ylcarbamate]",1.01 to 2 nM,1.01 to 2 nM,–,–
COc1ccc2ncc(O[C@@H]3C[C@H]4C(=O)N[C@]5(C(=O)NS(=O)(=O)C6(C)CC6)C[C@H]5/C=C\[C@@H](C)CCC[C@@H](C)[C@H](NC(=O)OC(C)(C)C(F)(F)F)C(=O)N4C3)nc2c1 [Compound 18],5.01 to 68 nM,5.01 to 68 nM,–,–
COc1ccc2ncc(O[C@@H]3C[C@H]4C(=O)N[C@]5(C(=O)NS(=O)(=O)C6(C)CC6)C[C@H]5/C=C\[C@H](C)CCC[C@@H](C)[C@H](NC(=O)OC(C)(C)C(F)(F)F)C(=O)N4C3)nc2c1 [Compound 17],5.01 to 68 nM,5.01 to 68 nM,–,–
"COc1ccc2c(O[C@@H]3C[C@H]4C(=O)N[C@]5(C(=O)NS(=O)(=O)C6CC6)C[C@H]5/C=C\[C@H](C)CCC[C@@H](C)[C@H](NC(=O)OC(C)(C)C(F)(F)F)C(=O)N4C3)nccc2c1 [Compound 9, 1,1,1-trifluoro-2-methylpropan-2-yl (2R,6S,7R,11R,13aS,14aR,16aS,Z)-14a-(cyclopropylsulfonylcarbamoyl)-2-(6-methoxyisoquinolin-1-yloxy)-7,11-dimethyl-5,16-dioxo-1,2,3,5,6,7,8,9,10,11,13a,14,14a,15,16,16a-hexadecahydrocyclopropa[e]pyrrolo[1,2-a][1,4]diazacyclopentadecin-6-ylcarbamate]",–,–,1 nM,0.36 nM
